Source: patent US6303591A, “21-hydroxy-6,19-oxidoprogesterone (21OH-6OP) and its use as medicament for treating excess of glucocorticoids” (Applied Research Systems ARS Holding NV, priority 1997, dated 2001)
“Also recorded” adds a separate entry of the source. Each block holds one compound with its values, some of them ahead of it.

Legend:
[1] = test system: Na^+ retention (sodium-excretion rate); assay: Na^+ -retaining activity, adrenalectomized rats; assay type: in vivo, rat
Experimental: (§1) FIG. 3: Biological Properties of 21OH-6OP: A) Glycogen storage in vivo: 100 μg steroid/100 g body weight of male rats were injected as indicated in Example 1. Liver glycogen was purified and quantified with Krisman's reagent (17). Controls were injected with vehicle. Results are expressed as means±SEM (n=6). (*): different from controls P<0.02. B) TAT induction in vitro: rat hepatocytes were incubated for 5 h in HAM-F12 medium in the presence of 100 nM steroid and TAT activity was measured. Results are expressed as percentage of enzyme activity (means±SEM, n=4) over controls incubated in the presence of vehicle. (*) different from controls P<0.01. C) Sodium-retaining activity: adrenalectomized rats were treated with the indicated dose of steroids. Results are expressed as the ratio of sodium-excretion rates of steroid-injected animals to the excretion rates of rats injected with vehicle.
(§2) Bioassay : Liver glycogen deposition was measured on adrenalectoniized male Sprague-Dawley rats (180-220 g) as follows: steroids were dissolved in ethanol/propylene glycol/0.9% NaCl solution (3:3:34) and 100 μg steroid/l00 g body weight were injected i.m. the previous night. On the morning of the experiment this dose was reinjected intraperitoneally. Three hours later the rats were killed by cervical dislocation and livers were immediately removed. Glycogen purification and quantification were carried out according to Krisman's method (17). Na^+ -retaining properties were measured as described (5). Tyrosine aminotransferase (TAT) was induced in rat hepatocytes isolated by the procedure of Fry et al (18). TAT activity was determined according to Granner and Tomkins (19).

[2] = test system: Na^+ retention (sodium-excretion rate); conditions: earlier study, ref (5); cited from earlier work
[3] = test system: tyrosine aminotransferase (TAT) induction in rat hepatocytes; assay: TAT induction in rat hepatocytes (agonism); assay type: cell-based; conditions: for increase of TAT activity: 100 nM steroid, rat hepatocytes
Experimental: as §1
(§3) Hatched bars represent incubations performed in the presence of vehicle instead of agonist.
as §2
(§4) The basal TAT activity in hepatocytes, denominated control in the figure, was measured by adding vehicle (final concentration: 0.2% ethanol) to the culture. […] 2.5 μM 21OH-6OP inhibits 80% of TAT induction when concubated with B or DXM.

[4] = test system: liver glycogen; assay: liver glycogen deposition in vivo, adrenalectomized rats; parameters: species or system rat; conditions: 100 μg steroid/100 g body weight; for liver glycogen deposits: compared to ADX controls
Experimental: as §1, §2

[5] = test system: TAT induction in hepatocytes (GR); assay: antagonism of TAT induction by DXM or B in hepatocytes; assay type: cell-based, rat; conditions: 2.5 μM steroid
Experimental: as §3, §2, §4

[6] = target: T1, type I receptors (kidney MR) (Rattus norvegicus, UniProt P22199); assay: tracer binding (Scatchard) to kidney type I sites (MR); conditions: for nH, type I: Hill coefficient; for Q, type I: apparent number of sites
T1 construct: kidneys as a source of MR; from tissue; host or cells: kidney cytosol, adrenalectomized male Sprague-Dawley rats
T1 sequence (P22199 1-981): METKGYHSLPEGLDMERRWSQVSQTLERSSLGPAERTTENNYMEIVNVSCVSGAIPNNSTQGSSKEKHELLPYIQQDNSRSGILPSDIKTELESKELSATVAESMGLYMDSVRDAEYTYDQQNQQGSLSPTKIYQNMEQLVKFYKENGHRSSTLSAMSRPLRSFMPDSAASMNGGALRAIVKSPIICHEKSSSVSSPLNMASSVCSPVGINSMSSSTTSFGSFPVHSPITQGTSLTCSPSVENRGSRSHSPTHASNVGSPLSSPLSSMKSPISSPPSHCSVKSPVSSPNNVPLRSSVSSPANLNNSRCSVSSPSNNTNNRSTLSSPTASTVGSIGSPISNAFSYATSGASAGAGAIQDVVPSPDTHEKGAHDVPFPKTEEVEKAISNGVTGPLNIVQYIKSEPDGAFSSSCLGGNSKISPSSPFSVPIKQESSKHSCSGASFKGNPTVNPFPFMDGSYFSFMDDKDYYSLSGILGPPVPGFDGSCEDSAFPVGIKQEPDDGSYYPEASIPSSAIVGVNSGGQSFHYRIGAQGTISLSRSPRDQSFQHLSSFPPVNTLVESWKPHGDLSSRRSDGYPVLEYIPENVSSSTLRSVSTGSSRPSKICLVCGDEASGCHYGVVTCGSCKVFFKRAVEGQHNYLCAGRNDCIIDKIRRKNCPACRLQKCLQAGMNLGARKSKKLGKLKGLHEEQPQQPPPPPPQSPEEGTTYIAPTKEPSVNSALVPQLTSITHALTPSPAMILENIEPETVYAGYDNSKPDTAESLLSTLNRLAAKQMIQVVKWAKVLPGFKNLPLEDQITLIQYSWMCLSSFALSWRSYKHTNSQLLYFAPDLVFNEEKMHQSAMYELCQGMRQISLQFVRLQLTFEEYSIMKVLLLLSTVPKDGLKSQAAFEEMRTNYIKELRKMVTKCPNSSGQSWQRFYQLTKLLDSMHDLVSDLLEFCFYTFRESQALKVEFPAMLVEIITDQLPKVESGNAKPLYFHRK
Experimental: Binding Assay: Adrenalectomized male Sprague-Dawley rats were bled to death by heart puncture. Cold 0.9% NaCI was injected profusely through the aorta until organs were completely blanched. Thymuses were used as a source of GR and kidneys as a source of MR. Homogenization and incubation conditions were performed as previously described, (14) and (15), respectively. Briefly, homogenates performed in cold TEGM buffer at pH 7.4 (0.1 M Tris-HCl, 10 mM EDTA, 10 mM α-mercaptoethanol, 20 mM Na2 MoO4, 25% glycerol, 0.1 mM PMSF, 2.0 TIU/ml aprotinin and 1 mg% Leupeptin) were centrifuged at 37,000 rev. for 30 min at 0° C. Supernatants from this centrifugation are referred to as "cytosol". […] (^3 H)-P4 binding to uterus PR was assayed on immature female rats according to Jordan et al (16). […]
(§5) To study the binding of ALDO to kidney- MR without the competitive influence of the relatively more abundant GR, GR was removed with the specific ligand RU28362 (7).

[7] = test system: PR; conditions: background; cited from earlier work
[8] = test system: inoperable cases of nonpituitary Cushing's syndrome; conditions: cited from earlier work
[9] = target: T2, type II sites (GR) (Rattus norvegicus, UniProt P06536); assay: tracer binding (Scatchard) to kidney type II sites (GR); conditions: no competitor
T2 construct: type II receptors in kidney cytosols; from tissue; host or cells: kidney cytosol, adrenalectomized male Sprague-Dawley rats
T2 sequence (P06536 1-795): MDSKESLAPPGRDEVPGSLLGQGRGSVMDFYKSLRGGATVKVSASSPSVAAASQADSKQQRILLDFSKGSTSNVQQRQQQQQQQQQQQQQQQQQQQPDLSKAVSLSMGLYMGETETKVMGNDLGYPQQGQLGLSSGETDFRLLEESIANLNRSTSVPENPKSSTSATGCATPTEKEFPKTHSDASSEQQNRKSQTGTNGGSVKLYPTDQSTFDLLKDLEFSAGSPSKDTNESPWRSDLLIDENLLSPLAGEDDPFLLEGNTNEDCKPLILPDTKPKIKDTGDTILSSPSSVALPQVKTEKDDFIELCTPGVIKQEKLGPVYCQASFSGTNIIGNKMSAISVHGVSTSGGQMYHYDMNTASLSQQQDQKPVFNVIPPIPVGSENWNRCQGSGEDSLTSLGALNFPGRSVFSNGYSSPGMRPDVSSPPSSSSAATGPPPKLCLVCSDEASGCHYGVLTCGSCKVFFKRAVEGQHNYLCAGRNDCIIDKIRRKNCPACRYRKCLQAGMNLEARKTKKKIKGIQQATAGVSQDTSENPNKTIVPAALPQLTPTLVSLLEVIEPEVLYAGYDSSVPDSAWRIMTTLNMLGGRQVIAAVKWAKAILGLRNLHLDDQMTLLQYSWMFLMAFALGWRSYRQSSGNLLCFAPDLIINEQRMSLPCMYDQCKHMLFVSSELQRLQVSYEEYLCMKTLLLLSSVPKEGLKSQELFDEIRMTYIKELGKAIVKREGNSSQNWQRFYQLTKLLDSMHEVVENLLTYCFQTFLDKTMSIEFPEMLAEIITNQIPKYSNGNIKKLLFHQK
Experimental: Binding Assay: Adrenalectomized male Sprague-Dawley rats were bled to death by heart puncture. Cold 0.9% NaCI was injected profusely through the aorta until organs were completely blanched. Thymuses were used as a source of GR and kidneys as a source of MR. Homogenization and incubation conditions were performed as previously described, (14) and (15), respectively. Briefly, homogenates performed in cold TEGM buffer at pH 7.4 (0.1 M Tris-HCl, 10 mM EDTA, 10 mM α-mercaptoethanol, 20 mM Na2 MoO4, 25% glycerol, 0.1 mM PMSF, 2.0 TIU/ml aprotinin and 1 mg% Leupeptin) were centrifuged at 37,000 rev. for 30 min at 0° C. Supernatants from this centrifugation are referred to as "cytosol". […] (^3 H)-P4 binding to uterus PR was assayed on immature female rats according to Jordan et al (16).
as §5
The calculated Kd for type I sites in different conditions ranges between 0.4 and 1 nM (Table 1) which is at least eighty times higher than the affinity for type II sites.

[10] = test system: hippocampus type I MR; conditions: ref (9); cited from earlier work
[11] = in the presence of 2.5 μM 21OH-6OP
[12] = in the presence of 10 μM RU-28362

SMILES: CC(=O)[C@H]1CC[C@H]2[C@@H]3C[C@H]4OC[C@@]5(CCC(=O)C=C45)[C@H]3CC[C@]12C [6OP, 6,19-oxidoprogesterone]
Na^+ -retaining (MC) properties (in words) ([1]; FIG. 3-C): weak Na^+ -retainer; also recorded: then loosing activity at still higher doses | maximum Na^+ retention ([1]; maximum of parabolic dose-response, at high doses): 50% | Na^+ retaining properties [2]: exhibited practically no Na^+ retaining properties | TAT induction (in words) ([3]; FIGS. 3-B and 4 (hatched bars), no agonist added): neither 6OP nor 21OH-6OP evoke these responses; also recorded: Neither 6OP nor 21OH-6OP facilitate TAT induction | GC properties ([3]; preliminary studies, test not specified): lack of GC properties | GC response: liver glycogen ([4]; FIG. 3-A): neither 6OP nor 21OH-6OP evoke these responses | antagonism of TAT induction by B (in words) ([5]; 100 nM B): significantly different (P<0.01) from the basal activity | antagonism of TAT induction by DXM (in words) ([5]; 100 nM DXM): significantly different (P<0.01) from the basal activity

SMILES: CC#C[C@]1(O)CC[C@H]2[C@@H]3C=C(C)C4=CC(=O)C=C[C@]4(C)[C@H]3[C@@H](O)C[C@@]21C [RU28862]
reduction of (^3 H)-ALDO Scatchard plot to type I sites ([6]; 1.0 μM RU28862, selective MR ligand ZK91587): reduces the plot to a single line corresponding to type I sites

SMILES: CC#C[C@]1(O)CC[C@H]2[C@@H]3CCC4=CC(=O)CCC4=C3[C@@H](c3ccc(N(C)C)cc3)C[C@@]21C [RU38486]
antiprogestin activity [7]: strong antiprogestin activity | dose needed for effectiveness [8]: 20-800 mg per day

increase of TAT activity [3]: between five and six times
SMILES: C[C@]12C[C@H](O)[C@H]3[C@@H](CCC4=CC(=O)CC[C@@]43C)[C@@H]1CC[C@@H]2C(=O)CO [B, corticosterone]
liver glycogen deposits [4]: between three and four times more

SMILES: C[C@@H]1C[C@H]2[C@@H]3CCC4=CC(=O)C=C[C@]4(C)[C@@]3(F)[C@@H](O)C[C@]2(C)[C@@]1(O)C(=O)CO [DXM, dexamethasone]
increase of TAT activity [3]: between five and six times | liver glycogen deposits [4]: between three and four times more

SMILES: C[C@]12CCC(=O)C=C1CC[C@@H]1[C@@H]2[C@@H](O)C[C@]2(C=O)[C@@H](C(=O)CO)CC[C@@H]12 [(^3 H)-ALDO, Aldosterone]
nH, type II ([9]; Hill coefficient): 0.86 | Q, type II ([9]; apparent number of sites): 2900 fmol/mg | Kd [9]: 64.4 nM | nH, type I [6, 11]: 0.88 | nH, type I [6, 12]: 0.90 | nH, type I ([6]; no competitor): 0.97 | Q, type I [6, 11]: 110 fmol/mg | Q, type I [6, 12]: 124.4 fmol/mg | Q, type I ([6]; no competitor): 104 fmol/mg

SMILES: COC(=O)[C@@H]1CC2=CC(=O)CC[C@]2(C)[C@H]2CC[C@@]3(C)[C@@H]([C@@H]4C[C@@H]4[C@@]34CCC(=O)O4)[C@H]12 [(^3 H)-ZK91587]
binding to hippocampus type I MR [10]: hippocampus type I MR (9) | nH, type I ([6]; no competitor): 0.91 | Q, type I ([6]; no competitor): 98 fmol/mg | Kd ([6]; no competitor): 0.42 nM
